# Data as given in PubChem BioAssay (NCI).
# Where “and” joins values, the source holds several entries; their conditions need not be identical. Identical values can stand only once.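 Cells were grown in 96-well plates and exposed to each compound for 48 hours at five concentrations; endpoints were interpolated linearly between bracketing concentrations, or set to the highest concentration if not reached. At the GI50, growth is halved. At the TGI there is no net growth.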
# How the values were obtained:
# Experiment in all cases: NCI anticancer screen, dose series, 48 h
# MOLT-4 leukemia = tested on: MOLT-4 leukemia
# KM12 colon = tested on: KM12 colon
# CAKI-1 renal = tested on: CAKI-1 renal
# SK-MEL-2 melanoma = tested on: SK-MEL-2 melanoma
# HCT-15 colon = tested on: HCT-15 colon
# OVCAR-4 ovarian = tested on: OVCAR-4 ovarian
# SK-MEL-5 melanoma = tested on: SK-MEL-5 melanoma
# U251 CNS = tested on: U251 CNS
SMILES,GI50 (MOLT-4 leukemia),TGI (MOLT-4 leukemia),GI50 (KM12 colon),TGI (KM12 colon),GI50 (CAKI-1 renal),TGI (CAKI-1 renal),GI50 (SK-MEL-2 melanoma),TGI (SK-MEL-2 melanoma),GI50 (HCT-15 colon),TGI (HCT-15 colon),GI50 (OVCAR-4 ovarian),TGI (OVCAR-4 ovarian),GI50 (SK-MEL-5 melanoma),TGI (SK-MEL-5 melanoma),GI50 (U251 CNS),TGI (U251 CNS)
O=C1OCC2=C1C(c1ccccc1)c1cc3c(cc1N2CCO)CCC3 (configuration not stated),0.307 µM,> 25 µM,0.0793 µM,0.922 µM,0.0868 µM,> 25 µM,0.0901 µM,> 8.97 µM,0.103 µM,> 25 µM,0.127 µM,> 25 µM,0.0762 µM,5.41 µM,0.116 µM,> 25 µM
S=C(Nc1ccc(-c2nc3ccccc3s2)cc1)Nc1ccccn1,18.8 µM,> 86.7 µM,21.9 µM,> 70.8 µM,17.3 µM,45.7 µM,22.7 µM,50.3 µM,27.4 µM,> 71.6 µM,37 µM,> 100 µM,17.2 µM,36.2 µM,27.9 µM,> 100 µM
COC(=O)c1c2c(c[n+]([O-])c1C)C(=O)C(NCc1ccccc1)=CC2=O,0.412 µM,2.59 µM,0.608 µM,3.03 µM,1.27 µM,3.18 µM,1.19 µM,3.35 µM,0.354 µM,1.53 µM,0.232 µM,0.835 µM,0.175 µM,0.322 µM,0.51 µM,1.89 µM
CCc1ccc(/C(C#N)=C/C=C/c2ccccc2)cc1,6.87 µM,> 83.9 µM,1.61 µM,> 100 µM,10.1 µM,> 100 µM,4.92 µM,> 100 µM,0.897 µM,> 83.9 µM,18.4 µM,> 100 µM,1.09 µM,26.2 µM,3.16 µM,> 100 µM
COc1ccc(C2=C(Br)C(=O)OC2)cc1Cl,29.5 µM,> 100 µM,23.6 µM,> 84.4 µM,8.52 µM,51.1 µM,> 91.2 µM,> 100 µM,19.4 µM,> 55.1 µM,61.4 µM,> 100 µM,29.1 µM,> 100 µM,28.5 µM,> 91.1 µM
COc1cc2c3c(n(CCCN=[N+]=[N-])c(=O)c2cc1OC)-c1ccc(N)cc1C3=O,0.0731 µM,1.46 µM,0.334 µM,1.16 µM,0.132 µM,2.8 µM,0.622 µM,1.55 µM,0.378 µM,2.46 µM,0.608 µM,2.59 µM,0.0784 µM,0.223 µM,0.0832 µM,0.766 µM
CCCCC(SC(=S)N(CC)CC)C(=O)Nc1nc(CC(=O)OCC)cs1 (configuration not stated),20.2 µM,> 100 µM,31.6 µM,> 100 µM,91.7 µM,> 100 µM,29.2 µM,86 µM,48.5 µM,> 100 µM,30.6 µM,> 100 µM,13.5 µM,30.9 µM,42.1 µM,> 100 µM
CCN1CCN(CCNc2nccc(-c3c(-c4cccc(O)c4)nc4sccn34)n2)S1(=O)=O,19.2 µM and 21.7 µM,32.5 µM and 57.6 µM,11 µM and 11.2 µM,32.5 µM and > 100 µM,7.33 µM and 3 µM,28.5 µM and > 100 µM,2.05 µM and 2.6 µM,10.4 µM and 7.27 µM,11.7 µM and 8.63 µM,32.5 µM and > 100 µM,19.5 µM and 12.1 µM,32.5 µM and > 100 µM,5.28 µM and 6.28 µM,23.1 µM and 20.7 µM,30.8 µM and 11.1 µM,32.5 µM and > 100 µM
Clc1ccc(N/N=C/c2ccccn2)nc1,0.339 µM,> 50.7 µM,0.395 µM,> 54.7 µM,0.341 µM,> 22.7 µM,0.675 µM,> 100 µM,0.333 µM,> 100 µM,0.321 µM,> 100 µM,0.423 µM,2.59 µM,0.459 µM,> 100 µM
COc1cccc(C2=NN(C(C)=O)C(c3cc(OC)c(OC)c(OC)c3)C2)c1 (configuration not stated),3.67 µM,> 100 µM,1.48 µM,> 100 µM,2.79 µM,> 100 µM,23.8 µM,> 100 µM,1.42 µM,> 100 µM,6.88 µM,> 100 µM,0.829 µM,10.2 µM,3.37 µM,> 100 µM
CC(C)[C@@H]1NC(=O)[C@]2(C)CSC(=N2)c2csc(n2)CNC(=O)C[C@@H](/C=C/CCS)OC1=O,0.171 µM,> 100 µM,0.0526 µM,> 32.4 µM,1.83 µM,7.83 µM,0.049 µM,1.49 µM,5.12 µM,> 100 µM,0.416 µM,> 100 µM,0.0446 µM,0.197 µM,0.0843 µM,1.02 µM
Oc1ccc(Cl)cc1Cc1cc(Cl)cc(Cc2cc(Cl)ccc2O)c1O,–,8.67 µM,–,10.5 µM,–,13 µM,–,7.68 µM,–,12.2 µM,–,16.2 µM,–,2.56 µM,–,11.8 µM
O=[N+]([O-])c1ccc(Oc2cccnc2)c([N+](=O)[O-])c1,6.08 µM,32.2 µM,2.69 µM,6.68 µM,2.26 µM,22.9 µM,3.97 µM,14.8 µM,3.75 µM,> 100 µM,6.4 µM,> 100 µM,3.04 µM,11.6 µM,3.12 µM,12.7 µM
Nc1cccc(-c2nc3sccn3c2-c2ccnc(NCCCNS(=O)(=O)c3ccc(C(F)(F)F)cc3)n2)c1,2.8 µM,10.4 µM,3.6 µM,13.8 µM,3.25 µM,72.1 µM,4.66 µM,23.4 µM,3.33 µM,29.9 µM,3.27 µM,22.8 µM,2.2 µM,5.2 µM,5.87 µM,> 100 µM
Cc1nc(NC(=O)COc2cccc(/C=C3\COc4ccccc4C3=O)c2)sc1C,3.5 µM,> 100 µM,1.5 µM,2.92 µM,1.5 µM,3.41 µM,1.62 µM,3.17 µM,2.04 µM,5.2 µM,4.02 µM,13.9 µM,1.86 µM,3.81 µM,1.54 µM,2.9 µM
